Measurements: patent US12544359B2, “1-aminosulfonyl-2-carboxypyrrole derivatives as metallo-beta-lactamase inhibitors” (INFEX Therapeutics Limited, priority 2019, dated 2026)

Legend:
[1] = tested on: K. pneumoniae ATCC BAA2146 NDM-1; test: Meropenem combination MIC; type: cell-based; settings: meropenem only (baseline)
Description: (§1) MICs were determined by exposing bacteria to serial dilutions of antibacterial agents in MHB-II (cation-adjusted Mueller-Hinton Broth pH 7.4) according to Clinical and Laboratory Standards Institute (CLSI) broth microdilution guidelines (Cockerill et al., 2012).
(§2) Combination MIC were performed as described for MIC determinations with the addition of 4 mg/L test article to MHB-II.
(§3) The compounds of the invention were tested against a primary panel of bacterial strains, columns I-V of Table 2. As appropriate, compounds considered suitable for further investigation were tested against a secondary panel of bacterial strains, columns VI and VII of Table 2.

[2] = tested on: E. coli ATCCBAA-2452 NDM-1; test: Meropenem combination MIC; type: cell-based; settings: meropenem only (baseline)
Description: as §1, §2, §3

[3] = tested on: K. pneumoniae NCTC13439 VIM-1; test: Meropenem combination MIC; type: cell-based; settings: meropenem only (baseline)
Description: as §1, §2, §3

A. baumannii SG698 NDM-1 = test: Meropenem combination MIC; type: cell-based; settings: meropenem only (baseline)
Description: as §1, §2, §3

[4] = tested on: K. pneumoniae NCTC13440 VIM-1; test: Meropenem combination MIC; type: cell-based; settings: meropenem only (baseline)
Description: as §1, §2, §3

E. coli NCTC13476 IMP = test: Meropenem combination MIC; type: cell-based; settings: meropenem only (baseline)
Description: as §1, §2, §3

[5] = Cytotoxicity Assay (CellTiter-Glo); type: cell-based; settings: human, Hep G2 cells (ATCC HB-8065); 24 h exposure; read-out: HepG2 CC50
Description: Cytotoxicity was evaluated in human Hep G2 cells (ATCC HB-8065) seeded at a density of 2×10^5 cells per well and incubated for 24 h at 37° C., 5% CO2. Cells were exposed to a doubling dilution series of test article. After 24 h exposure, the viability of the cells was determined using CellTiter-Glo® (Promega, WI, USA) according to the manufacturer's instructions. Results are reported as the concentration of test article required to reduce cell viability by 50% (CC50).

[6] = tested on: Cerep SafetyScreen44 Panel (44 targets); test: off-target inhibition, Cerep SafetyScreen44 Panel
Description: Compounds were also tested for off-target inhibition in a Cerep SafetyScreen44 Panel.

NDM-1 = NDM-1 (Klebsiella pneumoniae, UniProt C7C422); test: metallo-β-lactamase inhibition assay (nitrocefin); type: biochemical; settings: 1.5 nM NDM-1, 100 μM nitrocefin, 37° C., pH 7.5
Description: Compounds of the invention were tested in a metallo-β-lactamase inhibition assay to investigate mechanism of action of the compounds. Results are reported as the concentration of test article required to inhibit enzyme activity by 50% (IC50).
Inhibition of metallo-β-lactamase enzyme function was performed at 37° C. in buffer at pH 7.5 (50 mM HEPES, 150 mM NaCl, 0.1 mM ZnSO4, 20 μg/mL PEG4000), containing 1.5 nM NDM-1, 100 μM nitrocefin, and a range of concentrations of compound. Absorbance at 490 nm was measured using a BMG LABTECH FLUOstar Omega microplate reader every minute for 30 minutes. IC50s were determined from the average increase in OD per minute versus the Log 10 concentration of compound using GraphPad Prism.

[7] = solubility study in saline, identified visually; type: physicochemical; settings: 2 mg in 40 μL saline (50 mg/mL), visual; free base unless indicated
Description: Compounds were also tested in a solubility study. Each sample (2 mg) was weighed into a clear 1.75 mL vial followed by the addition of saline (40 μL, to make up to 50 mg/mL). Unless indicated otherwise, the compounds were tested as the free base. Each resulting mixture was vortexed (if required) and the solubility of each was identified visually.

Chain of NDM-1 (C7C422 whole entry, looked up, species assumed): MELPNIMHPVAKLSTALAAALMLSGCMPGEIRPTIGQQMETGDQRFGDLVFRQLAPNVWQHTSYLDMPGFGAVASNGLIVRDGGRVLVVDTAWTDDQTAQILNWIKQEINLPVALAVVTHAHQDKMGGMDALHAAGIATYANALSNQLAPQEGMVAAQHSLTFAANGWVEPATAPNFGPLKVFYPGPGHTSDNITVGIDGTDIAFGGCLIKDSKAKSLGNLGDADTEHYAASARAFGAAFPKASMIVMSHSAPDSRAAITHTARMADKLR

| Compound | CC50 at 24 h [5] [µg/mL] | IC50 (NDM-1) [nM] | also measured |
| --- | --- | --- | --- |
| C[C@@H](O)[C@H]1C(=O)N2C(C(=O)O)=C(S[C@@H]3CN[C@H](C(=O)N(C)C)C3)[C@H](C)[C@H]12 [Meropenem, meropenem] |  |  | Meropenem MIC (μg/mL) III K. pneumoniae ATCC BAA2146 NDM-1 [1]: 16 µg/mL; Meropenem MIC (μg/mL) I E. coli ATCCBAA-2452 NDM-1 [2]: 1 µg/mL; Meropenem MIC (μg/mL) VII K. pneumoniae NCTC13439 VIM-1 [3]: 0.5 µg/mL; Meropenem MIC (μg/mL) IV A. baumannii SG698 NDM-1 (A. baumannii SG698 NDM-1): 8 µg/mL; Meropenem MIC (μg/mL) V K. pneumoniae NCTC13440 VIM-1 [4]: 1 µg/mL; Meropenem MIC (μg/mL) II E. coli NCTC13476 IMP (E. coli NCTC13476 IMP): 4 µg/mL |
| CNCCN(C)C(=O)c1ccc(-c2ccn(S(N)(=O)=O)c2C(=O)O)cc1 [Example 25, 3-[4-[Methyl-[2-(methylamino)ethyl]carbamoyl]phenyl]-1-sulfamoyl-pyrrole-2-carboxylic acid] | > 256 | 319 | Number of targets ≥50% inhibition at 100 μM [6]: 0; Solubility [7]: Soluble |
| CNCCN(C)C(=O)C1CCC(c2ccn(S(N)(=O)=O)c2C(=O)O)CC1 (centres unmarked) [Example 87, 3-[4-[Methyl-[2-(methylamino)ethyl]carbamoyl]cyclohexyl]-1-sulfamoyl-pyrrole-2-carboxylic acid] | > 256 | 248 |  |
| N[C@@H](CO)C(=O)N1CCC(c2ccn(S(N)(=O)=O)c2C(=O)O)CC1 [Example 72, 3-[1-[(2S)-2-Amino-3-hydroxy-propanoyl]-4-piperidyl]-1-sulfamoyl-pyrrole-2-carboxylic acid] | > 256 | 1570 |  |
| C[C@H](N)C(=O)N1CCC(c2ccn(S(N)(=O)=O)c2C(=O)O)CC1 [Example 69, 3-[1-[(2S)-2-Aminopropanoyl]-4-piperidyl]-1-sulfamoyl-pyrrole-2-carboxylic acid] | > 256 | 1480 | Number of targets ≥50% inhibition at 100 μM [6]: 0; Solubility [7]: Soluble |
| NS(=O)(=O)n1ccc(-c2ccc(C(=O)NCCN3CCOCC3)cc2)c1C(=O)O [Example 15, 3-[4-(2-Morpholinoethyl-carbamoyl)phenyl]-1-sulfamoyl-pyrrole-2-carboxylic acid] | > 256 | 1790 |  |
| NS(=O)(=O)n1ccc(-c2ccc(C(=O)NC(CO)CO)cc2)c1C(=O)O [Example 12, 3-[4-[[2-Hydroxy-1-(hydroxymethyl)ethyl]carbamoyl]phenyl]-1-sulfamoyl-pyrrole-2-carboxylic acid] | > 128 | 1060 |  |
| NCCN1CCC(c2ccn(S(N)(=O)=O)c2C(=O)O)CC1 [Example 85, 3-[1-(2-Aminoethyl)-4-piperidyl]-1-sulfamoyl-pyrrole-2-carboxylic acid] | > 128 | 399 |  |
| CC(=O)NCCNC(=O)c1ccc(-c2ccn(S(N)(=O)=O)c2C(=O)O)cc1 [Example 10, 3-[4-(2-Acetamidoethyl-carbamoyl)phenyl]-1-sulfamoyl-pyrrole-2-carboxylic acid] | > 256 | 374 |  |
| N#CCNC(=O)c1ccc(-c2ccn(S(N)(=O)=O)c2C(=O)O)cc1 [Example 6, 3-[4-(Cyanomethyl-carbamoyl)phenyl]-1-sulfamoyl-pyrrole-2-carboxylic acid] | > 256 | 843 |  |
| CN(C)CCNC(=O)c1ccc(-c2ccn(S(N)(=O)=O)c2C(=O)O)cc1 [Example 9, 3-[4-[2-(Dimethylamino)ethylcarbamoyl]phenyl]-1-sulfamoyl-pyrrole-2-carboxylic acid] | > 256 | 373 |  |
| NS(=O)(=O)n1ccc(-c2ccc(C(=O)N[C@H]3[C@@H]4CNC[C@@H]43)cc2)c1C(=O)O [Example 43, 3-[4-[[(1S,5R)-3-Azabicyclo[3.1.0]hexan-6-yl]carbamoyl]phenyl]-1-sulfamoyl-pyrrole-2-carboxylic acid] | > 256 | 273 |  |
| NS(=O)(=O)n1ccc(-c2ccc(C(=O)NCCCO)cc2)c1C(=O)O [Example 11, 3-[4-(3-Hydroxypropyl-carbamoyl)phenyl]-1-sulfamoyl-pyrrole-2-carboxylic acid] | > 256 | 527 |  |
| NS(=O)(=O)n1ccc(C2CCN(C(=O)[C@@H]3CCCN3)CC2)c1C(=O)O [Example 73, 3-[1-[(2S)-Pyrrolidine-2 carbonyl]-4-piperidyl]-1-sulfamoyl-pyirole-2-carboxylic acid] | > 256 | 568 |  |
| NCC1CCN(C(=O)c2ccc(-c3ccn(S(N)(=O)=O)c3C(=O)O)cc2)CC1 [Example 44, 3-[4-[4-(Aminomethyl)piperidine-1-carbonyl]phenyl]-1-sulfamoyl-pyrrole-2-carboxylic acid] | > 256 | 187 |  |
